Values quoted from earlier work in patent US20250375533A1, “Sublingual Formulation of Anticancer Compound for Use in the Treatment of Autoimmune Neurodegenerative Diseases” (Vektor Pharma TF GmbH, priority 2022, published 2025).
Where two headings read alike, the source gives them in different places.

Tests used:
[1] = in vivo
[2] = pH 1.4 solution; for active substance maintained: with cyclodextrins
[3] = 37° C.
[4] = oral solution without HPβCD
Clostridium perfringens = Clostridium perfringens culture
[5] = target: BCRP (ABCG2) transporter proteins (Homo sapiens, UniProt Q9UNQ0)
Sequence of BCRP (ABCG2) transporter proteins (Q9UNQ0 whole entry): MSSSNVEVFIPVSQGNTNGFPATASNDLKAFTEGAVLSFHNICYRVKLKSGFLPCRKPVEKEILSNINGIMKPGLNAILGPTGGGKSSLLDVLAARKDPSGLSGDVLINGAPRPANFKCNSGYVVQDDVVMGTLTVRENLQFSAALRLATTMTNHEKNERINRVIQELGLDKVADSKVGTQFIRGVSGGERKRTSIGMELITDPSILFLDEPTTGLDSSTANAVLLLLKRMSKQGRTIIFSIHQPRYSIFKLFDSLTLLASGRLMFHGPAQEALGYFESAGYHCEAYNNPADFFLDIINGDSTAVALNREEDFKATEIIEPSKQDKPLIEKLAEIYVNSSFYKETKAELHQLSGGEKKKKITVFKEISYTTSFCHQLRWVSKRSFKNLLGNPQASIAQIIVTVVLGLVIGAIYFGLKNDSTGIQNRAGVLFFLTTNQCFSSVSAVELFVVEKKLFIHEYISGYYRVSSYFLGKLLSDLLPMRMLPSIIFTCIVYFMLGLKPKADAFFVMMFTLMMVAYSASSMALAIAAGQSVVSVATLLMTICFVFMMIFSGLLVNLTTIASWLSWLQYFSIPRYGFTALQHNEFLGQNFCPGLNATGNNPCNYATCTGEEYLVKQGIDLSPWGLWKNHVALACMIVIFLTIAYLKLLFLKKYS

[6] = saliva
Escherichia coli = Escherichia coli culture
[7] = administered rectally

Compound | interpatient variability, CV %, AUC inf [1] [%] | interpatient variability, CV %, AUC t [1] [%] | interpatient variability, CV %, Cmax [1] [%] | active substance remained in solution ([2]; absence of cyclodextrins, after 8 hours) [%] | active substance lost ([2]; absence of cyclodextrins, after about 3 hours) | active substance maintained ([2]; 8 hours) | active substance maintained ([2]; almost 5 hours) | degradation (deglycosylation to Cloroadenine) (whole feces) | tin value of cladribine ([3]; pH 1.0 solutions) [h] | tin value of cladribine ([3]; pH 2.0 solutions) [h] | bioavailability after oral administration [4] [%] | degradation (Bacteroides fragilis) | degradation (Enterococcus faecalis) | solubility in water | degradation (deglycosylation to Cloroadenine) (Clostridium perfringens) | substrate of BCRP (ABCG2) transporter proteins [5] | degradation [6] | degradation (deglycosylation to Cloroadenine) (Escherichia coli) | bioavailability [7] [%]
Nc1nc(Cl)nc2c1ncn2[C@H]1C[C@H](O)[C@@H](CO)O1 [Mavenclad] | 29.2 | 29.8 | 43.0 |  |  |  |  |  |  |  |  |  |  |  |  |  |  |  | 
Nc1nc(Cl)nc2c1ncn2[C@H]1C[C@H](O)[C@@H](CO)O1 [cladribine, 2-chloro-2′-deoxyadenosine] |  |  |  | 15 | about 50% | approximately 70% | more than 80% | rapidly deglycosylated | 0.37 | 1.6 | 35.3 | slowly or not at all | slowly or not at all | slightly soluble | rapidly deglycosylated | substrate of BCRP | slowly or not at all | rapidly deglycosylated | 21
